Laboratory results: patent publication US7041701B2, “Triterpenoid derivatives” (Univerzita Palackeho V Olomouci, priority 2000, dated 2006)
pIC50: −log10 of the molar value.

Tests used:
[1] = system: SW620 human colon cancer, metastasis; experiment: MTT cytotoxicity assay, SW620; assay type: cell-based; conditions: 72 hours, read-out: TCS50
Text: (§1) One of the parameters used as the basis for colorimetric assays is the metabolic activity of viable cells. For example, a microtiter assay which uses the tetrazolium salt MTT is now widely used to quantitate cell proliferation and cytotoxicity [Hajdúch M, Mihál V, Minarík J, Fáber E, Safárová M, Weigl E, Antálek P.: Cytotechnology, 1996, 19, 243–245]. For instance, this assay is used in drug screening programs and in chemosensitivity testing. Because tetrazolium salts are cleaved only by metabolically active cells, these assays exclusively detect viable cells. In the case of the MTT assay, yellow soluble tetrazolium salt is reduced to a coloured water-insoluble formazan salt. After it is solubilized, the formazan formed can easily and rapidly be quantified in a conventional ELISA plate reader at 570 nm (maximum absorbancy). The quantity of reduced formazan corresponds to the number of vital cells in the culture. […]
(§2) The cell suspensions that were prepared and diluted according to the particular cell type and the expected target cell density (2,500–30,000 cells per well based on cell growth characteristics) were added by pipette (80 μl) into 96/well microtiter plates. […] Usually, test compounds were evaluated at six 4-fold dilutions. […] The tumour cell survival (TCS) was calculated using the following equitation: TCS=(ODdrug exposed well/mean ODcontrol wells)×100%. […]

[2] = system: A549 human lung adenocarcinoma; experiment: MTT cytotoxicity assay, A549; assay type: cell-based; conditions: 72 hours, read-out: TCS50
Text: as §1, §2

[3] = system: Saos2 human, p53−/−, Rb−/−; experiment: MTT cytotoxicity assay, Saos2; assay type: cell-based; conditions: 72 hours, read-out: TCS50
Text: as §1, §2

[4] = system: Caco-2 human colon cancer; experiment: MTT cytotoxicity assay, Caco-2; assay type: cell-based; conditions: 72 hours, read-out: TCS50
Text: as §1, §2

[5] = system: K562-FLUD human promyelocytic leukemia, fludarabin resistant; experiment: MTT cytotoxicity assay, K562-FLUD; assay type: cell-based; conditions: 72 hours, read-out: TCS50
Text: as §1, §2

[6] = system: CEM-VCR bulk human T-lymphoblastic leukemia, vincristin resistant; experiment: MTT cytotoxicity assay, CEM-VCR bulk; assay type: cell-based; conditions: 72 hours, read-out: TCS50
Text: as §1, §2

A549 lung cancer cells = experiment: Apoptosis morphology by scanning electron microscopy; assay type: cell-based, human; conditions: A549, 2 μM, 12 hours, scanning electron microscopy (FIG. 1)
Text: To analyse the mechanisms of betulinine-induced cytotoxicity, it is important to distinguish apoptosis from the other major form of cell death, necrosis. Finally, at the tissue level, apoptosis produces little or no inflammation, since shrunken portions of the cell are engulfed by the neighbouring cells, especially macrophages, rather than being released into the extracellular fluid. In contrast, in necrosis, cellular contents are released into the extracellular fluid, and thus have an irritant affect on the nearby cells, causing inflammation. […] Thirdly, at the molecular level, a number of biochemical processes play an important role in the induction of apoptosis. However, the majority of them are not well understood, and they result in activation of proteases and nucleases, which finally destruct key biological macromolecules—proteins and DNA. For the detection of apoptotic versus necrotic modes of cell death, the morphology was assessed by scanning electron microscopy.
A549 cell line was cultured on tissue culture treated glass coverslips in 6-well culture plates with or without 2 μM concentration of I.3 or betulinic acid at 37° C. and 5% CO2 for 12 hours. Following incubation, the coverslips were washed in Hank's buffered salt solution and processed as described below.
Cells were fixed in 2% glutaraldehyde/PBS overnight at 4° C., dried and covered with gold under vacuum. […]

[7] = system: human SK-N-AS neuroblastoma; experiment: In vivo activity in xenotransplanted human neuroblastoma; design: species or system CD-1/Ctrl-1 nu/nu nude female mice; conditions: I.3 1 or 2 mg/mouse s.c. or i.p., 3×D1,2,5,6,9,10; SK-N-AS in nude mice (FIG. 2)
Method: Human neuroblastoma SK-N-AS cell line was obtained from ATTC. The line was cultured in Dulbeco's modified essential medium with 4.5 g dextrose/l, 10% of foetal calf serum, 2 mM glutamine, 100 U/ml penicillin and […] streptomycin. For transplantation purposes, only the cells in log phase were used.
CD-1/Ctrl-1 nu/nu nude female mice, 8 weeks old, 18–22 g weight were used in this study (IffaCredo, France). Animals were inoculated with 5.10^6 tumour cells subcutaneously into right inquinal region. Following transplantation, tumor growth was measured in both the control/vehicle and the treated groups using calipers. Tumor volume (TV) was calculated as follows: TV=(a^2×b)/2, where a is width and b is length The statistical significance was evaluated using a […].
Cisplatin (Platidiam 10 inj, sicc., Lachema, Czech Republic) was used as a control drug in this experiment. It was diluted in apyrogenic water and applied to animals in a final volume of 0.18 ml subcutaneously at day 1.
I.3 was synthesised as described above. It was suspended at 10 mg/ml in 5% dextrose and pH was adjusted to 8.0 with sodium hydroxide. vehicle: 5% dextrose with pH adjusted to 8.0 with sodium hydroxide. […]

With `CC(=O)OC[C@@]1(C(=O)O)CC[C@]2(C)[C@H](CC[C@@H]3[C@@]4(C)CC[C@H](OC(C)=O)C(C)(C)[C@@H]4CC[C@]32C)C1=O` [I.3, 3β,28-diacetoxy-18-oxo-19,20,21,29,30-pentanorlupan-22-oic acid] the pIC50 [1] was 5.92, the pIC50 [2] was 6.00 and the pIC50 [3] was 5.74. It also gave a pIC50 [4] of 5.52, a pIC50 [5] of 6.40 and a pIC50 [6] of 5.60. The “morphologic markers of apoptosis” value (A549 lung cancer cells) was “cytoplasmatic blebbing, cellular fragmentation and formation of apoptotic bodies” and the “tumor growth (tumor volume)” value [7] was “no tumor growth”.
